From patent publication US20040029823A1, “Antisense oligonucleotide compositions and methods for the modulation of JNK proteins” (priority 1997, published 2004)

How the values were obtained:
MDA-MB-231 tumors = assay: MDA-MB-231 human breast adenocarcinoma tumors in nude mice; type: in vivo; details: 25 mg/kg intravenous once daily
Excerpt: Approximately 5×10^6 breast adenocarcinoma cells (cell line MDA-MB-231; American Type Culture Collection, Richmond, Va., No. ATCC HTB-26) were implanted subcutaneously in the right inner thigh of nude mice (n=6 for each of three sets of mice). Oligonucleotides ISIS 15346 (JNK1, SEQ ID NO: 16) and 15353 (JNK2, SEQ ID NO: 31) were suspended in saline and administered once daily to two sets of mice on the first day the tumor volume was about […]. A saline-only (0.9% NaCl) solution was given to a third set of animals as a control. Oligonucleotides were given by intravenous injection at a dosage of 25 mg/kg. Tumor size was measured and tumor volume was calculated on days 12, 19, 26 and 33 following tumor cell inoculation.

[1] = test system: TNFa-induced JNK activity; assay: TNFa-induced JNK activity in HUVEC (GST-c-Jun phosphorylation); type: cell-based, human; details: 100 nM oligonucleotide, compared to a control oligonucleotide
HUVEC = assay: Apoptosis in HUVEC (percent hypodiploid cells, flow cytometry); type: cell-based, human; details: HUVEC

G^ST^SC^SC^SG^SG^SG^SC^SC^SA^SG^SG^SC^SC^SA^SA^SA^SG^ST^SC (antisense GTCCGGGCCAGGCCAAAGTC; DNA, all phosphorothioate, methylation of C not given here) [ISIS 15353, JNK2 gapmer: P═S, 2′-MOE wings; P═S, 2-deoxy core]
Mean Tumor Volume (MDA-MB-231 tumors; Day 12 after tumor cell inoculation): 0.122 cm^3
Mean Tumor Volume (MDA-MB-231 tumors; Day 19): 0.230 cm^3
Mean Tumor Volume (MDA-MB-231 tumors; Day 26): 0.358 cm^3
Mean Tumor Volume (MDA-MB-231 tumors; Day 33): 0.762 cm^3
inhibition of TNFa-induced JNK activity [1]: ~55%
percent hypodiploid cells (a measure of apoptosis) (HUVEC; Oligo + Cyclohexamide): 27%
percent hypodiploid cells (a measure of apoptosis) (HUVEC; Oligo + TNFa (10 ng/ml)): 32%
percent hypodiploid cells (a measure of apoptosis) (HUVEC; Oligo + z-VAD.fmk): 17%
percent hypodiploid cells (a measure of apoptosis) (HUVEC; Oligo alone): 23%
